Columns and labels:
[1] = test system: Glomerella Lacenarium (Colletotrichum lacenarium); assay: Glomerella lagenarium (Colletotrichum lagenarium) liquid culture / cucumber / preventative (anthracnose); assay type: cell-based; conditions: 20 ppm in the applied formulation, liquid culture in PDB, 24° C., inhibition of growth measured photometrically 3 to 4 days after application, vs untreated control, read-out: disease control
Outline: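 Photometric read-out of fungal growth 3 to 4 days after application, expressed as percent control relative to untreated wells. Plates held at 24 °C. Compound placed in DMSO before adding PDB broth seeded with conidia from cryogenic storage.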

Uromyces viciae-Fabael = assay: Uromyces viciae-fabae / field bean / leaf disc preventative (faba-bean rust); assay type: in vivo, Uromyces viciae-fabae on field bean; conditions: foliar, 288 h, 100 ppm in the applied formulation, inoculated two hours after application, assessed 12 days after application, vs untreated control leaf discs, read-out: disease control
Method: Leaf disks or leaf segments of various plant species are cut from plants grown in a greenhouse. The cut leaf disks or segments are placed in multiwell plates (24-well format) onto water agar. The leaf disks are sprayed with a test solution before (preventative) or after (curative) inoculation. Compounds to be tested are prepared as DMSO solutions (max. 10 mg/ml) which are diluted to the appropriate concentration with 0.025% Tween20 just before spraying. The inoculated leaf disks or segments are incubated under defined conditions (temperature, relative humidity, light, etc.) according to the respective test system. A single evaluation of disease level is carried out 3 to 14 days after inoculation, depending on the pathosystem. Percent disease control relative to the untreated check leaf disks or segments is then calculated.
Field bean leaf discs are placed on water agar in multiwell plates (96-well format) and 10 μl of the formulated test compound diluted in acetone and a spreader pipetted onto the leaf disc. Two hours after application leaf discs are inoculated by spraying a spore suspension on the lower leaf surface. The leaf discs are incubated in a climate cabinet at 22° C. with 18 hour day and 70% relative humidity. The activity of a compound is assessed as percent disease control compared to untreated when an appropriate level of disease damage appears in untreated check leaf disks (12 days after application).
The following compounds at 100 ppm in the applied formulation give at least 80% disease control in this test when compared to untreated control leaf discs under the same conditions, which show extensive disease development.

[2] = test system: Puccinia recondita f. Sp. Triticil; assay: Puccinia recondita f. sp. tritici / wheat / leaf disc curative (brown rust); assay type: in vivo, Puccinia recondita f. sp. tritici on wheat cv. Kanzler; conditions: foliar, 200 ppm in the applied formulation, applied 1 day after inoculation, assessed 6 to 8 days after application, vs untreated control leaf disks, read-out: disease control
Outline: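 Compound applied 1 day after spore inoculation of wheat cv. Kanzler leaf segments on agar (dark, 19 °C, 75% RH before treatment). After further incubation under 12 h light/12 h dark at 19 °C and 75% RH, disease control relative to untreated segments rated 6–8 days post-application.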

Phakopsora pachyrhizi = Phakopsora pachyrhizi / soybean / leaf disc preventative (Asian soybean rust); assay type: in vivo, Phakopsora pachyrhizi on soybean; conditions: foliar, 200 ppm in the applied formulation, inoculated one day after application, assessed 12 to 14 days after application, vs untreated control leaf disks, read-out: disease control
Outline: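 Read-out is percent disease control relative to untreated check discs, assessed once untreated discs show adequate disease, 12 to 14 days after application. Compounds, tested at 200 ppm in the applied formulation, are sprayed onto soybean leaf discs one day before inoculation with a spore suspension.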

[3] = test system: Puccinia recondita f. Sp. Tritici; assay: Puccinia recondita f. sp. tritici / wheat / leaf disc preventative (brown rust); assay type: in vivo, Puccinia recondita f. sp. tritici on wheat cv. Kanzler; conditions: foliar, 200 ppm in the applied formulation, inoculated 1 day after application, assessed 7 to 9 days after application, vs untreated control leaf disks, read-out: disease control
Outline: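 Wheat cv. Kanzler leaf segments on agar were sprayed with compound (DMSO stock diluted with 0.025% Tween20) 1 day before inoculation with spores. Segments were held at 19 °C, 75% rh, 12 h light/dark. Percent disease control versus untreated was scored 7–9 days after application.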

With `COc1ccccc1C(=O)NCc1ccc(-c2noc(C(F)(F)F)n2)cc1` [Compound 1.6, 2-methoxy-N-[[4-[5-(trifluoromethyl)-1,2,4-oxadiazol-3-yl]phenyl]methyl]benzamide] the inhibition of growth at 20 ppm [1] was no less than 80%, the pest or weed control at 100 ppm (Uromyces viciae-Fabael) was no less than 80% and the pest or weed control at 200 ppm [2] was no less than 80%. For the same compound, the pest or weed control at 200 ppm (Phakopsora pachyrhizi) was no less than 80% and the pest or weed control at 200 ppm [3] was no less than 80%.

`O=C(NCc1ccc(-c2noc(C(F)(F)F)n2)c(F)c1)C1CCCO1` (centres unmarked) [Compound 1.59, N-[[3-fluoro-4-[5-(trifluoromethyl)-1,2,4-oxadiazol-3-yl]phenyl]methyl] tetrahydrofuran-2-carboxamide] gave an inhibition of growth at 20 ppm [1] of no less than 80%, a melting point of 56 to 58 °C and a pest or weed control at 200 ppm [2] of no less than 80%. For the same compound, the pest or weed control at 200 ppm (Phakopsora pachyrhizi) was no less than 80% and the pest or weed control at 200 ppm [3] was no less than 80%.

`O=C(NCc1ccc(-c2noc(C(F)(F)F)n2)c(F)c1)C1CC1` [Compound 1.57, N-[[3-fluoro-4-[5-(trifluoromethyl)-1,2,4-oxadiazol-3-yl]phenyl]methyl] cyclopropanecarboxamide] showed an inhibition of growth at 20 ppm [1] of no less than 80%, a melting point of 139 to 140 °C and a pest or weed control at 200 ppm [2] of no less than 80%. For the same compound, the pest or weed control at 200 ppm (Phakopsora pachyrhizi) was no less than 80% and the pest or weed control at 200 ppm [3] was no less than 80%.

`O=C(NCc1ccc(-c2noc(C(F)(F)F)n2)c(F)c1)c1ccccc1Cl` [Compound 1.58, 2-chloro-N-[[3-fluoro-4-[5-(trifluoromethyl)-1,2,4-oxadiazol-3-yl]phenyl]methyl] benzamide] showed an inhibition of growth at 20 ppm [1] of no less than 80%, a melting point of 146 to 148 °C and a pest or weed control at 200 ppm (Phakopsora pachyrhizi) of no less than 80%. For the same compound, the pest or weed control at 200 ppm [3] was no less than 80%.

Compound `O=C(NCc1ccc(-c2noc(C(F)(F)F)n2)c(F)c1F)C1CCCO1` (centres unmarked) [Compound 1.80, N-[[2,3-difluoro-4-[5-(trifluoromethyl)-1,2,4-oxadiazol-3-yl]phenyl]methyl] tetrahydrofuran-2-carboxamide] has an inhibition of growth at 20 ppm [1] of no less than 80%, a melting point of 80 to 86 °C and a pest or weed control at 200 ppm [2] of no less than 80%. It also gave a pest or weed control at 200 ppm (Phakopsora pachyrhizi) of no less than 80% and a pest or weed control at 200 ppm [3] of no less than 80%.

Work on `Cc1cccc(C)c1C(=O)NCc1ccc(-c2noc(C(F)(F)F)n2)cc1` [Compound 1.19, 2,6-dimethyl-N-[[4-[5-(trifluoromethyl)-1,2,4-oxadiazol-3-yl]phenyl]methyl]benzamide] yielded an inhibition of growth at 20 ppm [1] of no less than 80%, a pest or weed control at 100 ppm (Uromyces viciae-Fabael) of no less than 80% and a pest or weed control at 200 ppm (Phakopsora pachyrhizi) of no less than 80%. It also gave a pest or weed control at 200 ppm [3] of no less than 80%.

In the case of `O=C(Cc1ccc(Cl)cc1)NCc1ccc(-c2noc(C(F)(F)F)n2)cc1` [Compound 1.29, 2-(4-chlorophenyl)-N-[[4-[5-(trifluoromethyl)-1,2,4-oxadiazol-3-yl]phenyl]methyl]acetamide], the pest or weed control at 100 ppm (Uromyces viciae-Fabael) is reported as no less than 80%, the pest or weed control at 200 ppm (Phakopsora pachyrhizi) is reported as no less than 80% and the pest or weed control at 200 ppm [3] is reported as no less than 80%.

Work on `O=C(Cc1ccccc1)NCc1ccc(-c2noc(C(F)(F)F)n2)cc1` [Compound 1.26, 2-phenyl-N-[[4-[5-(trifluoromethyl)-1,2,4-oxadiazol-3-yl]phenyl]methyl]acetamide] yielded an inhibition of growth at 20 ppm [1] of no less than 80%, a pest or weed control at 100 ppm (Uromyces viciae-Fabael) of no less than 80% and a pest or weed control at 200 ppm [2] of no less than 80%. For the same compound, the pest or weed control at 200 ppm (Phakopsora pachyrhizi) was no less than 80% and the pest or weed control at 200 ppm [3] was no less than 80%.

`O=C(NCc1ccc(-c2noc(C(F)(F)F)n2)c(F)c1F)C1CC1` [Compound 1.55, N-[[2,3-difluoro-4-[5-(trifluoromethyl)-1,2,4-oxadiazol-3-yl]phenyl]methyl] cyclopropanecarboxamide] gave an inhibition of growth at 20 ppm [1] of no less than 80%, a melting point of 144 to 150 °C and a pest or weed control at 200 ppm [2] of no less than 80%. The pest or weed control at 200 ppm (Phakopsora pachyrhizi) was no less than 80% and the pest or weed control at 200 ppm [3] was no less than 80%.

Work on `O=C(NCCc1ccc(-c2noc(C(F)(F)F)n2)cc1)c1ccccc1Cl` [Compound 1.99, 2-chloro-N-[2-[4-[5-(trifluoromethyl)-1,2,4-oxadiazol-3-yl]phenyl]ethyl]benzamide] yielded a melting point of 133 to 140 °C, a pest or weed control at 200 ppm (Phakopsora pachyrhizi) of no less than 80% and a pest or weed control at 200 ppm [3] of no less than 80%.

For `N#Cc1ccc(CC(=O)NCc2ccc(-c3noc(C(F)(F)F)n3)cc2)cc1` [Compound 1.30, 2-(4-cyanophenyl)-N-[[4-[5-(trifluoromethyl)-1,2,4-oxadiazol-3-yl]phenyl]methyl]acetamide], the pest or weed control at 100 ppm (Uromyces viciae-Fabael) was no less than 80%, the pest or weed control at 200 ppm (Phakopsora pachyrhizi) was no less than 80% and the pest or weed control at 200 ppm [3] was no less than 80%.

Compound `O=C(NCc1ccc(-c2noc(C(F)(F)F)n2)nc1)c1ccccc1Cl` [Compound 1.95, 2-chloro-N-[[6-[5-(trifluoromethyl)-1,2,4-oxadiazol-3-yl]-3-pyridyl]methyl] benzamide] has a melting point of 106 to 113 °C and a pest or weed control at 200 ppm [3] of no less than 80%.

Compound `O=C(NCc1ccc(-c2noc(C(F)(F)F)n2)cc1)C1CCOC1` (centres unmarked) [Compound 1.18, N-[[4-[5-(trifluoromethyl)-1,2,4-oxadiazol-3-yl]phenyl]methyl] tetrahydrofuran-3-carboxamide] has an inhibition of growth at 20 ppm [1] of no less than 80%, a pest or weed control at 100 ppm (Uromyces viciae-Fabael) of no less than 80% and a pest or weed control at 200 ppm [2] of no less than 80%. It also gave a pest or weed control at 200 ppm (Phakopsora pachyrhizi) of no less than 80% and a pest or weed control at 200 ppm [3] of no less than 80%.

`O=C(NCCc1ccc(-c2noc(C(F)(F)F)n2)cc1)C1CC1` [Compound 1.96, N-[2-[4-[5-(trifluoromethyl)-1,2,4-oxadiazol-3-yl]phenyl]ethyl] cyclopropanecarboxamide] gave an inhibition of growth at 20 ppm [1] of no less than 80%, a melting point of 150 to 151.1 °C and a pest or weed control at 200 ppm [2] of no less than 80%. The pest or weed control at 200 ppm (Phakopsora pachyrhizi) was no less than 80% and the pest or weed control at 200 ppm [3] was no less than 80%.

With `O=C(CC1CC1(F)F)NCc1ccc(-c2noc(C(F)(F)F)n2)cc1` (centres unmarked) [Compound 1.32, 2-(2,2-difluorocyclopropyl)-N-[[4-[5-(trifluoromethyl)-1,2,4-oxadiazol-3-yl]phenyl]methyl]acetamide] the inhibition of growth at 20 ppm [1] was no less than 80%, the pest or weed control at 100 ppm (Uromyces viciae-Fabael) was no less than 80% and the pest or weed control at 200 ppm [2] was no less than 80%. For the same compound, the pest or weed control at 200 ppm (Phakopsora pachyrhizi) was no less than 80% and the pest or weed control at 200 ppm [3] was no less than 80%.

`O=C(NCCc1ccc(-c2noc(C(F)(F)F)n2)cc1)C1CCCO1` (centres unmarked) [Compound 1.97, N-[2-[4-[5-(trifluoromethyl)-1,2,4-oxadiazol-3-yl]phenyl]ethyl] tetrahydrofuran-2-carboxamide] gave an inhibition of growth at 20 ppm [1] of no less than 80%, a melting point of 68.7 to 70.5 °C and a pest or weed control at 200 ppm [2] of no less than 80%. The pest or weed control at 200 ppm (Phakopsora pachyrhizi) was no less than 80% and the pest or weed control at 200 ppm [3] was no less than 80%.

For `O=C(NCc1ccc(-c2noc(C(F)(F)F)n2)nc1)C1CCCO1` (centres unmarked) [Compound 1.94, N-[[6-[5-(trifluoromethyl)-1,2,4-oxadiazol-3-yl]-3-pyridyl]methyl] tetrahydrofuran-2-carboxamide], the melting point was 84 to 88 °C and the pest or weed control at 200 ppm [2] was no less than 80%.

For `O=C(NCc1ccc(-c2noc(C(F)(F)F)n2)c(F)c1F)c1ccccc1Cl` [Compound 1.56, 2-chloro-N-[[2,3-difluoro-4-[5-(trifluoromethyl)-1,2,4-oxadiazol-3-yl]phenyl]methyl] benzamide], the inhibition of growth at 20 ppm [1] was no less than 80%, the melting point was 144 to 150 °C and the pest or weed control at 200 ppm (Phakopsora pachyrhizi) was no less than 80%. For the same compound, the pest or weed control at 200 ppm [3] was no less than 80%.

`CC1=NOC(C(=O)NCc2ccc(-c3noc(C(F)(F)F)n3)c(F)c2)C1` (centres unmarked) [Compound 1.60, N-[[3-fluoro-4-[5-(trifluoromethyl)-1,2,4-oxadiazol-3-yl]phenyl]methyl]-3-methyl-4,5-dihydroisoxazole-5-carboxamide] showed an inhibition of growth at 20 ppm [1] of no less than 80%, a melting point of 134 to 138 °C and a pest or weed control at 200 ppm [2] of no less than 80%. The pest or weed control at 200 ppm (Phakopsora pachyrhizi) was no less than 80% and the pest or weed control at 200 ppm [3] was no less than 80%.

In the case of `O=C(NCc1ccc(-c2noc(C(F)(F)F)n2)cc1)C1CCSCC1` [Compound 1.27, N-[[4-[5-(trifluoromethyl)-1,2,4-oxadiazol-3-yl]phenyl]methyl] tetrahydrothiopyran-4-carboxamide], the pest or weed control at 100 ppm (Uromyces viciae-Fabael) is reported as no less than 80%, the pest or weed control at 200 ppm (Phakopsora pachyrhizi) is reported as no less than 80% and the pest or weed control at 200 ppm [3] is reported as no less than 80%.

Reference: patent publication US20180368410A1, “MICROBIOCIDAL OXADIAZOLE DERIVATIVES” (SYNGENTA PARTICIPATIONS AG, priority 2015, published 2018)
